Columns and labels:
[1] = system: E.coli bacterial strain, AB2463 mutant strain (RecA); experiment: Mutagenicity test: mortality of RecA-deficient E. coli strain; assay type: cell-based; settings: RecA strain AB2463, treated for 2 hours at 37 °C
Method: A summary of results in mutagenicity and acute toxicity tests is given hereinbelow. a) Mutagenicity tests: E.coli bacterial strain, AB2463 mutant strain (RecA) was used. […] RecA strain, AB2463 mutant strain, which is defective in the recombination and induction of SOS system, was treated for 2 hours at 37^ºC with compounds of the present invention. […]

male BDF₁ mice = experiment: Acute toxicity test, LD50 i.p. (Litchfield-Wilcoxon method); assay type: in vivo; settings: 6-7 week-old male BDF₁ mice, 18-22 g

CCC1C(N)CCN1CC.[Cl][Pt][Cl] (stereo not drawn) [Example 4, Cis-dichloro(3-amino-1,2-diethylpyrrolidine)platinum^(II)]
LD₁₀ [1]: 18.97 µM
LD₅₀ [1]: 35.57 µM
LD₉₀ [1]: 72.33 µM
LD₅₀ (male BDF₁ mice): 113.81 mg/kg

N.N.O=C([O-])C1(C(=O)[O-])CCC1.[Pt+2] [Carboplatin, reference compound]
LD₁₀ [1]: 71.53 µM
LD₅₀ [1]: 606.0 µM
LD₉₀ [1]: 1599 µM
LD₅₀ (male BDF₁ mice): 117.5 mg/kg

N.N.[Cl][Pt][Cl] [Cisplatin, reference compound]
LD₁₀ [1]: 5.72 µM
LD₅₀ [1]: 17.0 µM
LD₉₀ [1]: 56.0 µM

CCN1CCC(N)C1C.[Cl][Pt][Cl] (stereo not drawn) [Example 2, Cis-dichloro(3-amino-1-ethyl-2-methylpyrrolidine)platinum^(II)]
LD₁₀ [1]: 15.86 µM
LD₅₀ [1]: 57.08 µM
LD₉₀ [1]: 301.27 µM
LD₅₀ (male BDF₁ mice): 60.95 mg/kg

CCC1C(N)CCN1C.[Cl][Pt][Cl] (stereo not drawn) [Example 3, Cis-dichloro(3-amino-2-ethyl-1-methylpyrrolidine)platinum^(II)]
LD₁₀ [1]: 10.74 µM
LD₅₀ [1]: 17.89 µM
LD₉₀ [1]: 35.78 µM
LD₅₀ (male BDF₁ mice): 82.72 mg/kg

CC1C(N)CCN1C.[Cl][Pt][Cl] (stereo not drawn) [Example 1, Cis-dichloro(3-amino-1,2-dimethylpyrrolidine)platinum^(II)]
LD₁₀ [1]: >1.2 µM
LD₅₀ [1]: 5.98 µM
LD₉₀ [1]: 13.15 µM
LD₅₀ (male BDF₁ mice): 95.02 mg/kg

From patent EP0517225A1, “Aminopyrrolidine platinum compounds, a process for preparing them and pharmaceutical compositions containing them” (priority 1991, dated 1992)
